Experiments:
Test in all cases: KINOMEscan competition binding
Conditions in all cases: compound 10.0 µM
ABL1 (human) = ABL1 (human) (UniProt P00519)
[1] = test system: ABL1 (human), P00519 [F317L]
[2] = test system: ABL1 (human), P00519 [M351T]
[3] = test system: ABL1 (human), P00519 [Y253F]
CAMK1G (human) = CAMK1G (human) (UniProt Q96NX5)
CDK16 (human) = CDK16 (human) (UniProt Q00536)
CDK19 (human) = CDK19 (human) (UniProt Q9BWU1)
CDK5 (human) = CDK5 (human) (UniProt Q00535)
CDKL2 (human) = CDKL2 (human) (UniProt Q92772)
CHUK (human) = CHUK (human) (UniProt O15111)
DDR1 (human) = DDR1 (human) (UniProt Q08345)
DDR2 (human) = DDR2 (human) (UniProt Q16832)
EGFR (human) = EGFR (human) (UniProt P00533)
[4] = test system: EGFR (human), P00533 [747-751 del / S ins]
[5] = test system: EGFR (human), P00533 [A750P; 747-749 del]
[6] = test system: EGFR (human), P00533 [P753S; 747-752 del]
EPHA4 (human) = EPHA4 (human) (UniProt P54764)
FLT3 (human) = FLT3 (human) (UniProt P36888)
[7] = test system: FLT3 (human), P36888 [D835Y]
[8] = test system: FLT3 (human), P36888 [N841I]
FYN (human) = FYN (human) (UniProt P06241)
[9] = target: JAK1 JH1 catalytic (human) (UniProt P23458)
[10] = target: JAK2 JH1 catalytic (human) (UniProt O60674)
[11] = test system: KIT (human), P10721 [V559D/V654A]
LCK (human) = LCK (human) (UniProt P06239)
MAP4K1 (human) = MAP4K1 (human) (UniProt Q92918)
MAP4K2 (human) = MAP4K2 (human) (UniProt Q12851)
MAP4K3 (human) = MAP4K3 (human) (UniProt Q8IVH8)
MAP4K4 (human) = MAP4K4 (human) (UniProt O95819)
MAPK11 (human) = MAPK11 (human) (UniProt Q15759)
MAPK13 (human) = MAPK13 (human) (UniProt O15264)
MUSK (human) = MUSK (human) (UniProt O15146)
MYO3A (human) = MYO3A (human) (UniProt Q8NEV4)
PDGFRA (human) = PDGFRA (human) (UniProt P16234)
PDGFRB (human) = PDGFRB (human) (UniProt P09619)
PRKCE (human) = PRKCE (human) (UniProt Q02156)
PTK2 (human) = PTK2 (human) (UniProt Q05397)
TTK (human) = TTK (human) (UniProt P33981)
ULK3 (human) = ULK3 (human) (UniProt Q6PHR2)
YES1 (human) = YES1 (human) (UniProt P07947)

DDR2 (human), sequence (Q16832 whole entry, looked up): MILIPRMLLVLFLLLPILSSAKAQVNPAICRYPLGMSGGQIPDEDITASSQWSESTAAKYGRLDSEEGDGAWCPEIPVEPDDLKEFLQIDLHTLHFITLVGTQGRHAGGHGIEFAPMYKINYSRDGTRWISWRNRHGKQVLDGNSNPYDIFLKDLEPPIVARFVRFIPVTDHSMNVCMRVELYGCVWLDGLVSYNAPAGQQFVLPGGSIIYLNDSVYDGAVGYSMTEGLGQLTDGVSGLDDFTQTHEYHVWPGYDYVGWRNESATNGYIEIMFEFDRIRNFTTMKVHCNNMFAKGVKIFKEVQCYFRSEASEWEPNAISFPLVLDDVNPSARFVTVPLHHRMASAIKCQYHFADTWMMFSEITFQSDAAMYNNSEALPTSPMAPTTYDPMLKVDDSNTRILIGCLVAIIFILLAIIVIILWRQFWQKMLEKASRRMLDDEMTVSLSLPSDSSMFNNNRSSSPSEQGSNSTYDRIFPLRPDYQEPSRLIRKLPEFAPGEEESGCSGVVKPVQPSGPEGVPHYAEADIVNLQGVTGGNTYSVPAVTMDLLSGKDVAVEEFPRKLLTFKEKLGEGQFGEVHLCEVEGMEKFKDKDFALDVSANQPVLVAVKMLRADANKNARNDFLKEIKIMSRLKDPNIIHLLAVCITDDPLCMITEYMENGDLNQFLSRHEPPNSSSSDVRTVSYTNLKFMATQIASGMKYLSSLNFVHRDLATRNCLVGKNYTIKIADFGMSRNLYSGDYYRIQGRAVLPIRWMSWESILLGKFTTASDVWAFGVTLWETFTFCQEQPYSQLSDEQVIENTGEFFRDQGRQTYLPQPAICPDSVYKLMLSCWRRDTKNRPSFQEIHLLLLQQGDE
MAP4K4 (human), sequence (O95819 whole entry, looked up): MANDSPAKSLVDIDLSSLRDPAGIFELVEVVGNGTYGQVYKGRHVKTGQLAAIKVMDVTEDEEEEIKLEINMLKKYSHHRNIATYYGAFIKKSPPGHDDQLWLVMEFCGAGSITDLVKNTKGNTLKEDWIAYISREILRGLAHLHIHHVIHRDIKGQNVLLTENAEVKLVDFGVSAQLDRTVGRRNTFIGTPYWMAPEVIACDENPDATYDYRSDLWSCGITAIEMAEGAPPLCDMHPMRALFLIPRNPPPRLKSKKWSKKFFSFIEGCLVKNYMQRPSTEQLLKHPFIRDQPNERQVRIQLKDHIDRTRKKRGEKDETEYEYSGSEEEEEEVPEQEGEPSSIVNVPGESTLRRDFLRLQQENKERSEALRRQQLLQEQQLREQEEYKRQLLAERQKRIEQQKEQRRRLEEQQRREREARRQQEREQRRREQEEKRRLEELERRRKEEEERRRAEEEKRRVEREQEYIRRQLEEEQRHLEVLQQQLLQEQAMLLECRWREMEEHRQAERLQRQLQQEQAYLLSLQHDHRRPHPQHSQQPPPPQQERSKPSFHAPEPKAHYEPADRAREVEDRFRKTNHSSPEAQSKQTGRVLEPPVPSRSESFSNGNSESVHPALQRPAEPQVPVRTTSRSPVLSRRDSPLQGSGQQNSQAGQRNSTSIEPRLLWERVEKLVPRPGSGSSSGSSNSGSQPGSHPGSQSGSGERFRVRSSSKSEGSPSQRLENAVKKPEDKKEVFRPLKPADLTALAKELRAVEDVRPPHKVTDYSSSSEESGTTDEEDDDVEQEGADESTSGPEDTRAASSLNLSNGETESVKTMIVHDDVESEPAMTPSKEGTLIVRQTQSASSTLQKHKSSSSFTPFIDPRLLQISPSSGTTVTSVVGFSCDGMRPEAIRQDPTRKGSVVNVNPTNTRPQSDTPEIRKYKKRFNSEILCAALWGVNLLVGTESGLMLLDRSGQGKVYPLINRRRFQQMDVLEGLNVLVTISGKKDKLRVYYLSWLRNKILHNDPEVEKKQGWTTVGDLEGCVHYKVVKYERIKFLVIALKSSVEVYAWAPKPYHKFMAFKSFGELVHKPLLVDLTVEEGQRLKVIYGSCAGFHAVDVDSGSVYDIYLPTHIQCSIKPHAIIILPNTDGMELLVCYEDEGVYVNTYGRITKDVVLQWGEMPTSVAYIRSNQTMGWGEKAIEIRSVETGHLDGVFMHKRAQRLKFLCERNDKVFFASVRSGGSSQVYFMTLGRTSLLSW
JAK2 JH1 catalytic (human), sequence (O60674 whole entry, looked up): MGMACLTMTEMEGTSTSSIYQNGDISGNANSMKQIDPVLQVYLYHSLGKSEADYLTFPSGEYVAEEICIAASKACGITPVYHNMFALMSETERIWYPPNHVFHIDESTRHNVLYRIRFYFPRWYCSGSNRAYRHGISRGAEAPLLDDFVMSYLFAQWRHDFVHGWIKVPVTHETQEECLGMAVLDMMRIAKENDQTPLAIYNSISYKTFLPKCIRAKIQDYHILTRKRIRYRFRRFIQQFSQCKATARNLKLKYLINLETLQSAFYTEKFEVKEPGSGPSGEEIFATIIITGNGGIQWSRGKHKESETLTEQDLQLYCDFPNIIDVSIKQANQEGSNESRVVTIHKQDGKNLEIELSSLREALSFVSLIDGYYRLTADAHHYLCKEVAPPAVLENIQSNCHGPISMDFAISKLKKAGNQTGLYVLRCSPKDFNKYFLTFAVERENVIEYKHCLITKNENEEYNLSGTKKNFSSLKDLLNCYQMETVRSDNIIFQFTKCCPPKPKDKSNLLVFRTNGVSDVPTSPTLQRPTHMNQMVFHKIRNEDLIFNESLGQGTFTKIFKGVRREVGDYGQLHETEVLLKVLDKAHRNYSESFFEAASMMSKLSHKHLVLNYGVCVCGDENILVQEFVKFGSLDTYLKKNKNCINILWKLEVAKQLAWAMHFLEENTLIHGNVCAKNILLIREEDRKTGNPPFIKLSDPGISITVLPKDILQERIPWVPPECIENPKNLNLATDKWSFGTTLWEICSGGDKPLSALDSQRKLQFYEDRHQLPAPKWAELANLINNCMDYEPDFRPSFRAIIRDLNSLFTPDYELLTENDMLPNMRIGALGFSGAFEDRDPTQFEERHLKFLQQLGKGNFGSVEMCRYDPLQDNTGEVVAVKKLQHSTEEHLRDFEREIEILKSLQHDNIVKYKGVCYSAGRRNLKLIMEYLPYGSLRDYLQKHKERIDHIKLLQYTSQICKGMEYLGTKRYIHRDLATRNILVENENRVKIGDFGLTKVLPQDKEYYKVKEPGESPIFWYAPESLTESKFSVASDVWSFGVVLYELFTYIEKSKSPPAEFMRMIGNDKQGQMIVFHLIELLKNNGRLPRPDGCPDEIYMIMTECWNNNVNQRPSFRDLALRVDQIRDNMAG
JAK1 JH1 catalytic (human), sequence (P23458 whole entry, looked up): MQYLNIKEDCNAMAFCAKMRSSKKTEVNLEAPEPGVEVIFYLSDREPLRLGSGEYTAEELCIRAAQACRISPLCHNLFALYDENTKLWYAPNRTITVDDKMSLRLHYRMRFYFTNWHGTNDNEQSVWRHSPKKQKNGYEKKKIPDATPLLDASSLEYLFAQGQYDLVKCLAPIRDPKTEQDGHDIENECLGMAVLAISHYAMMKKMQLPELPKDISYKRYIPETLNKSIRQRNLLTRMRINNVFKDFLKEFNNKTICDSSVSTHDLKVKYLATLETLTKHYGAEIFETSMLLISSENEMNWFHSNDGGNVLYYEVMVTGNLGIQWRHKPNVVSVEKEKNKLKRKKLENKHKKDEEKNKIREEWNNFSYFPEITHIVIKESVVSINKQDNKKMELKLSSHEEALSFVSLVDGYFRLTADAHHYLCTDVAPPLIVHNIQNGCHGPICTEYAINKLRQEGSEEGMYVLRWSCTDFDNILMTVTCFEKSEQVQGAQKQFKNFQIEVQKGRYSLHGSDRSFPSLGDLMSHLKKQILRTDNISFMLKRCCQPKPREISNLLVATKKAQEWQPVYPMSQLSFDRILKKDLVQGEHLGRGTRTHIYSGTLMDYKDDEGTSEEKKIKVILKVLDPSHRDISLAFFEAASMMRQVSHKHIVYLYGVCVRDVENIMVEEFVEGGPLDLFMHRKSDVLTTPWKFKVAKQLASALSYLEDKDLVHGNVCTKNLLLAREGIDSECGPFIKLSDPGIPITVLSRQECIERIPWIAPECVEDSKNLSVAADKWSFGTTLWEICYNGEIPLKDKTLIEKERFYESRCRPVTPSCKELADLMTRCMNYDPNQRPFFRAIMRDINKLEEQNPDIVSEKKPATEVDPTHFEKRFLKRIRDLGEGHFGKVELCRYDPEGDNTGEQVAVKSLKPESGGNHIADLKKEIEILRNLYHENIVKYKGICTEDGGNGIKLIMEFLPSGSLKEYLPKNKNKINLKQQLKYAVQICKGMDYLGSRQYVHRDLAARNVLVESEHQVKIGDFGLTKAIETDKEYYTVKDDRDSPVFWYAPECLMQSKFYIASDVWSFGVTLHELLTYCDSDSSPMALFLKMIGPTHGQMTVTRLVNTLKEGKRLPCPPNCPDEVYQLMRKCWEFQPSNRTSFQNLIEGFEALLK
FYN (human), sequence (P06241 whole entry, looked up): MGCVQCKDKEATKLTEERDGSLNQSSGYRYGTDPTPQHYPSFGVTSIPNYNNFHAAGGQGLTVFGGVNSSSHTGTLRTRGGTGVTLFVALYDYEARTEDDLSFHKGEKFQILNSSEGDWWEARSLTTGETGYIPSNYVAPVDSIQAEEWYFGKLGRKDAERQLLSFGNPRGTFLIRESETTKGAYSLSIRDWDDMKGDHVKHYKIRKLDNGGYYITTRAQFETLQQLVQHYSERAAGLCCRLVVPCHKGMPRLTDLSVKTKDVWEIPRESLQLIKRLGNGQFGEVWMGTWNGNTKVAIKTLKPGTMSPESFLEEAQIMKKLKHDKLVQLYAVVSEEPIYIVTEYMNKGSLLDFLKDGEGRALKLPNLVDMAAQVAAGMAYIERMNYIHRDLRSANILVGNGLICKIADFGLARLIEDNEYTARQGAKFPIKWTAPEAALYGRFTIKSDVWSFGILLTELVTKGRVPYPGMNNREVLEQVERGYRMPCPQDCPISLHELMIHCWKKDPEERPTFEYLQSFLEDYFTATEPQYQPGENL

SMILES: CCN1CCN(Cc2ccc(NC(=O)c3ccc(C)c(Oc4ccnc5[nH]ccc45)c3)cc2C(F)(F)F)CC1
- kinase still bound, per cent of control (ABL1 (human)): 0.1%
- kinase still bound, per cent of control [1]: 0.1%
- kinase still bound, per cent of control [2]: 0.35%
- kinase still bound, per cent of control [3]: 1.1%
- kinase still bound, per cent of control (CAMK1G (human)): 20%
- residual activity (CDK16 (human)): 11%
- residual activity (CDK19 (human)): 0.1%
- residual activity (CDK5 (human)): 19%
- residual activity (CDKL2 (human)): 0.9%
- kinase still bound, per cent of control (CHUK (human)): 0.95%
- kinase still bound, per cent of control (DDR1 (human)): 0.05%
- kinase still bound, per cent of control (DDR2 (human)): 5.1%
- kinase still bound, per cent of control (EGFR (human)): 5.6%
- kinase still bound, per cent of control [4]: 1.1%
- kinase still bound, per cent of control [5]: 1.5%
- kinase still bound, per cent of control [6]: 1.2%
- kinase still bound, per cent of control (EPHA4 (human)): 5.8%
- kinase still bound, per cent of control (FLT3 (human)): 0.15%
- kinase still bound, per cent of control [7]: 14%
- kinase still bound, per cent of control [8]: 0%
- kinase still bound, per cent of control (FYN (human)): 1.6%
- kinase still bound, per cent of control [9]: 11%
- kinase still bound, per cent of control [10]: 11%
- kinase still bound, per cent of control [11]: 2.7%
- kinase still bound, per cent of control (LCK (human)): 0.8%
- kinase still bound, per cent of control (MAP4K1 (human)): 1.6%
- kinase still bound, per cent of control (MAP4K2 (human)): 0.3%
- kinase still bound, per cent of control (MAP4K3 (human)): 18%
- kinase still bound, per cent of control (MAP4K4 (human)): 0%
- kinase still bound, per cent of control (MAPK11 (human)): 0%
- kinase still bound, per cent of control (MAPK13 (human)): 0.55%
- kinase still bound, per cent of control (MUSK (human)): 0.2%
- kinase still bound, per cent of control (MYO3A (human)): 6.4%
- kinase still bound, per cent of control (PDGFRA (human)): 0.6%
- kinase still bound, per cent of control (PDGFRB (human)): 0%
- kinase still bound, per cent of control (PRKCE (human)): 20%
- kinase still bound, per cent of control (PTK2 (human)): 23%
- kinase still bound, per cent of control (TTK (human)): 24%
- kinase still bound, per cent of control (ULK3 (human)): 0.1%
- kinase still bound, per cent of control (YES1 (human)): 1.6%

Source: the kinase profiling compilation of Christmann-Franck et al. (2016)
